Measured values from patent US8952024B2, “Herbicidal pyrimidone derivatives” (E I du Pont de Nemours and Company, priority 2009, dated 2015).

How the values were obtained:
Experiment in all cases: Test B pre-/postemergence plant response
Type in all cases: in vivo
[1] = test system: large crabgrass (Digitaria sanguinalis); details: for Crabgrass, Large plant response rating (0 to 100 scale): 62 g ai/ha, 0 is no effect
Outline: (§1)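 Seeds sown in loam–sand blend were treated preemergence, and plants at 2–18 cm (1- to 4-leaf stage) in peat-based medium were treated postemergence; compounds were formulated in non-phytotoxic solvent with surfactant. After 13–15 days in greenhouse, response was visually rated against controls, 0 (no effect) to 100 (complete control).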

[2] = test system: woolly cupgrass (Eriochloa villosa); details: for Cupgrass, Woolly plant response rating (0 to 100 scale): 62 g ai/ha, 0 is no effect
Outline: as §1

[3] = test system: pigweed (Amaranthus retroflexus); details: for Pigweed plant response rating (0 to 100 scale): 62 g ai/ha, 0 is no effect
Outline: as §1

[4] = test system: galium (catchweed bedstraw, Galium aparine); details: Postemergence
Outline: as §1

[5] = test system: lambsquarters (Chenopodium album); details: for Lambsquarters plant response rating (0 to 100 scale): 62 g ai/ha, 0 is no effect
Outline: as §1

[6] = test system: Italian ryegrass (Lolium multiflorum); details: for Ryegrass, Italian plant response rating (0 to 100 scale): 62 g ai/ha, postemergence, 0 is no effect, 100 is complete control
Outline: as §1

[7] = test system: goosegrass (Eleusine indica); details: for Goosegrass plant response rating (0 to 100 scale): 62 g ai/ha, 0 is no effect
Outline: as §1

corn (Zea mays) = details: for Corn plant response rating (0 to 100 scale): 62 g ai/ha, 0 is no effect
Outline: as §1

[8] = test system: Surinam grass (Brachiaria decumbens); details: for Surinam Grass plant response rating (0 to 100 scale): 62 g ai/ha, postemergence, 0 is no effect, 100 is complete control
Outline: as §1

[9] = Postemergence, 31 g ai/ha, 0 to 100 scale (0 no effect, 100 complete control)
[10] = Postemergence, 125 g ai/ha, scale 0 to 100 (0 no effect, 100 complete control)
[11] = Postemergence, 250 g ai/ha, scale 0 to 100 (0 no effect, 100 complete control), 13 to 15 days
[12] = postemergence, 100 is complete control, 13 to 15 days
[13] = Postemergence, 250 g ai/ha, scale 0 to 100 (0 no effect, 100 complete control)
[14] = 31 g ai/ha, postemergence, scale 0 to 100, 0 is no effect, 100 is complete control

O=C1CCCC(O)=C1C(=O)c1cnc(-c2ccsc2)n(C2CCOCC2)c1=O [Compound 186]
Plant response rating, Crabgrass, Large [1, 9]: 80 | Plant response rating, Crabgrass, Large [1, 10]: 85 | Plant response rating, Crabgrass, Large [1, 11]: 95 | Plant response rating, Cupgrass, Woolly [2, 9]: 70 | Plant response rating, Cupgrass, Woolly [2, 10]: 80 | Plant response rating, Cupgrass, Woolly [2, 11]: 85 | Plant response rating, Pigweed [3, 9]: 85 | Plant response rating, Pigweed [3, 10]: 100 | Plant response rating, Pigweed [3, 11]: 100 | Plant response rating, Galium ([4]; 31 g ai/ha, 0 to 100 scale (0 no effect, 100 complete control)): 40 | Plant response rating, Galium ([4]; 125 g ai/ha, scale 0 to 100 (0 no effect, 100 complete control)): 70 | Plant response rating, Galium ([4]; 250 g ai/ha, scale 0 to 100 (0 no effect, 100 complete control), 13 to 15 days): 70 | Plant response rating, Lambsquarters [5, 9]: 98 | Plant response rating, Lambsquarters [5, 10]: 100 | Plant response rating, Lambsquarters [5, 11]: 100 | Plant response rating, Ryegrass, Italian [6, 9]: 0 | Plant response rating, Ryegrass, Italian [6, 10]: 0 | Plant response rating, Ryegrass, Italian [6, 11]: 30 | Plant response rating, Goosegrass [7, 9]: 85 | Plant response rating, Goosegrass [7, 10]: 98 | Plant response rating, Goosegrass [7, 11]: 100 | Plant response rating, Corn (corn (Zea mays); [9]): 10 | Plant response rating, Corn (corn (Zea mays); [10]): 30 | Plant response rating, Corn (corn (Zea mays); [11]): 65

O=C1CCCC(O)=C1C(=O)c1cnc(-c2ccccc2)n(C2CCCCC2)c1=O [Compound 128, 3-cyclohexyl-5-[(2-hydroxy-6-oxo-1-cyclohexen-1-yl)carbonyl]-2-phenyl-4(3H)-pyrimidinone]
Surinam Grass plant response rating (0 to 100 scale) ([8]; 13 to 15 days): 80 | pest or weed control at 31 g/ha ([8]; Urochloa decumbens, post-emergence, Postemergence, 31 g ai/ha, 0 to 100 scale (0 no effect, 100 complete control), read-out: Plant response rating, Surinam Grass): 50% | pest or weed control at 125 g/ha ([8]; Urochloa decumbens, post-emergence, Postemergence, 125 g ai/ha, scale 0 to 100 (0 no effect, 100 complete control), read-out: Plant response rating, Surinam Grass): 85% | pest or weed control at 250 g/ha ([8]; Urochloa decumbens, post-emergence, Postemergence, 250 g ai/ha, scale 0 to 100 (0 no effect, 100 complete control), 13 to 15 days, read-out: Plant response rating, Surinam Grass): 85% | Crabgrass, Large plant response rating (0 to 100 scale) [1, 12]: 85 | pest or weed control at 31 g/ha ([1]; Digitaria sanguinalis, post-emergence, Postemergence, 31 g ai/ha, 0 to 100 scale (0 no effect, 100 complete control), read-out: Plant response rating, Crabgrass, Large): 85% | pest or weed control at 125 g/ha ([1]; Digitaria sanguinalis, post-emergence, Postemergence, 125 g ai/ha, scale 0 to 100 (0 no effect, 100 complete control), read-out: Plant response rating, Crabgrass, Large): 95% | pest or weed control at 250 g/ha ([1]; Digitaria sanguinalis, post-emergence, Postemergence, 250 g ai/ha, scale 0 to 100 (0 no effect, 100 complete control), 13 to 15 days, read-out: Plant response rating, Crabgrass, Large): 100% | Cupgrass, Woolly plant response rating (0 to 100 scale) [2, 12]: 90 | pest or weed control at 31 g/ha ([2]; Eriochloa villosa, post-emergence, Postemergence, 31 g ai/ha, 0 to 100 scale (0 no effect, 100 complete control), read-out: Plant response rating, Cupgrass, Woolly): 85% | pest or weed control at 125 g/ha ([2]; Eriochloa villosa, post-emergence, Postemergence, 125 g ai/ha, scale 0 to 100 (0 no effect, 100 complete control), read-out: Plant response rating, Cupgrass, Woolly): 90% | pest or weed control at 250 g/ha ([2]; Eriochloa villosa, post-emergence, Postemergence, 250 g ai/ha, scale 0 to 100 (0 no effect, 100 complete control), 13 to 15 days, read-out: Plant response rating, Cupgrass, Woolly): 95% | Pigweed plant response rating (0 to 100 scale) [3, 12]: 98 | pest or weed control at 31 g/ha ([3]; Amaranthus retroflexus, post-emergence, Postemergence, 31 g ai/ha, 0 to 100 scale (0 no effect, 100 complete control), read-out: Plant response rating, Pigweed): 95% | pest or weed control at 125 g/ha ([3]; Amaranthus retroflexus, post-emergence, Postemergence, 125 g ai/ha, scale 0 to 100 (0 no effect, 100 complete control), read-out: Plant response rating, Pigweed): 98% | pest or weed control at 250 g/ha ([3]; Amaranthus retroflexus, post-emergence, Postemergence, 250 g ai/ha, scale 0 to 100 (0 no effect, 100 complete control), 13 to 15 days, read-out: Plant response rating, Pigweed): 100% | Lambsquarters plant response rating (0 to 100 scale) [5, 12]: 98 | pest or weed control at 31 g/ha ([5]; Chenopodium album, post-emergence, Postemergence, 31 g ai/ha, 0 to 100 scale (0 no effect, 100 complete control), read-out: Plant response rating, Lambsquarters): 95% | pest or weed control at 125 g/ha ([5]; Chenopodium album, post-emergence, Postemergence, 125 g ai/ha, scale 0 to 100 (0 no effect, 100 complete control), read-out: Plant response rating, Lambsquarters): 100% | pest or weed control at 250 g/ha ([5]; Chenopodium album, post-emergence, Postemergence, 250 g ai/ha, scale 0 to 100 (0 no effect, 100 complete control), 13 to 15 days, read-out: Plant response rating, Lambsquarters): 100% | Ryegrass, Italian plant response rating (0 to 100 scale) ([6]; 13 to 15 days): 0 | pest or weed control at 31 g/ha ([6]; Lolium multiflorum, post-emergence, Postemergence, 31 g ai/ha, 0 to 100 scale (0 no effect, 100 complete control), read-out: Plant response rating, Ryegrass, Italian): 0% | pest or weed control at 125 g/ha ([6]; Lolium multiflorum, post-emergence, Postemergence, 125 g ai/ha, scale 0 to 100 (0 no effect, 100 complete control), read-out: Plant response rating, Ryegrass, Italian): 5% | pest or weed control at 250 g/ha ([6]; Lolium multiflorum, post-emergence, Postemergence, 250 g ai/ha, scale 0 to 100 (0 no effect, 100 complete control), 13 to 15 days, read-out: Plant response rating, Ryegrass, Italian): 30% | Goosegrass plant response rating (0 to 100 scale) [7, 12]: 95 | pest or weed control at 31 g/ha ([7]; Eleusine indica, post-emergence, Postemergence, 31 g ai/ha, 0 to 100 scale (0 no effect, 100 complete control), read-out: Plant response rating, Goosegrass): 90% | pest or weed control at 125 g/ha ([7]; Eleusine indica, post-emergence, Postemergence, 125 g ai/ha, scale 0 to 100 (0 no effect, 100 complete control), read-out: Plant response rating, Goosegrass): 98% | pest or weed control at 250 g/ha ([7]; Eleusine indica, post-emergence, Postemergence, 250 g ai/ha, scale 0 to 100 (0 no effect, 100 complete control), 13 to 15 days, read-out: Plant response rating, Goosegrass): 98% | Corn plant response rating (0 to 100 scale) (corn (Zea mays); [12]): 50 | Corn plant response rating (crop injury, 0 = no effect, 100 = complete kill) at 31 g/ha (corn (Zea mays); Zea mays, post-emergence, Postemergence, 31 g ai/ha, 0 to 100 scale (0 no effect, 100 complete control)): 40% | Corn plant response rating (crop injury, 0 = no effect, 100 = complete kill) at 125 g/ha (corn (Zea mays); Zea mays, post-emergence, Postemergence, 125 g ai/ha, scale 0 to 100 (0 no effect, 100 complete control)): 60% | Corn plant response rating (crop injury, 0 = no effect, 100 = complete kill) at 250 g/ha (corn (Zea mays); Zea mays, post-emergence, Postemergence, 250 g ai/ha, scale 0 to 100 (0 no effect, 100 complete control), 13 to 15 days): 60%

O=C1CCCC(O)=C1C(=O)c1cnc(-c2ccsc2)n(C2CCCCC2)c1=O [Compound 99]
Surinam Grass plant response rating (0 to 100 scale) ([8]; 13 to 15 days): 70 | Plant response rating, Surinam Grass [8, 10]: 75 | Plant response rating, Surinam Grass [8, 13]: 80 | Plant response rating, Crabgrass, Large [1, 14]: 85 | Crabgrass, Large plant response rating (0 to 100 scale) [1, 12]: 85 | Plant response rating, Crabgrass, Large [1, 10]: 95 | Plant response rating, Crabgrass, Large [1, 13]: 95 | Plant response rating, Cupgrass, Woolly [2, 14]: 70 | Cupgrass, Woolly plant response rating (0 to 100 scale) [2, 12]: 75 | Plant response rating, Cupgrass, Woolly [2, 10]: 80 | Plant response rating, Cupgrass, Woolly [2, 13]: 85 | Plant response rating, Pigweed [3, 14]: 100 | Pigweed plant response rating (0 to 100 scale) [3, 12]: 100 | Plant response rating, Pigweed [3, 10]: 100 | Plant response rating, Pigweed [3, 13]: 100 | Plant response rating, Lambsquarters [5, 14]: 98 | Lambsquarters plant response rating (0 to 100 scale) [5, 12]: 100 | Plant response rating, Lambsquarters [5, 10]: 100 | Plant response rating, Lambsquarters [5, 13]: 100 | Ryegrass, Italian plant response rating (0 to 100 scale) ([6]; 13 to 15 days): 0 | Plant response rating, Ryegrass, Italian [6, 10]: 20 | Plant response rating, Ryegrass, Italian [6, 13]: 20 | Plant response rating, Goosegrass [7, 14]: 75 | Goosegrass plant response rating (0 to 100 scale) [7, 12]: 75 | Plant response rating, Goosegrass [7, 10]: 75 | Plant response rating, Goosegrass [7, 13]: 80 | Plant response rating, Corn (corn (Zea mays); [14]): 40 | Corn plant response rating (0 to 100 scale) (corn (Zea mays); [12]): 65 | Plant response rating, Corn (corn (Zea mays); [10]): 65 | Plant response rating, Corn (corn (Zea mays); [13]): 80

O=C1CCCC(O)=C1C(=O)c1cnc(C2CC2)n(C2CCCCC2)c1=O [Compound 160]
Plant response rating, Surinam Grass [8, 9]: 40 | Plant response rating, Surinam Grass [8, 10]: 60 | Plant response rating, Surinam Grass [8, 11]: 75 | Plant response rating, Crabgrass, Large [1, 9]: 80 | Plant response rating, Crabgrass, Large [1, 10]: 95 | Plant response rating, Crabgrass, Large [1, 11]: 95 | Plant response rating, Cupgrass, Woolly [2, 9]: 65 | Plant response rating, Cupgrass, Woolly [2, 10]: 85 | Plant response rating, Cupgrass, Woolly [2, 11]: 95 | Plant response rating, Pigweed [3, 9]: 90 | Plant response rating, Pigweed [3, 10]: 100 | Plant response rating, Pigweed [3, 11]: 100 | Plant response rating, Lambsquarters [5, 9]: 95 | Plant response rating, Lambsquarters [5, 10]: 98 | Plant response rating, Lambsquarters [5, 11]: 98 | Plant response rating, Ryegrass, Italian [6, 9]: 0 | Plant response rating, Ryegrass, Italian [6, 10]: 35 | Plant response rating, Ryegrass, Italian [6, 11]: 35 | Plant response rating, Goosegrass [7, 9]: 80 | Plant response rating, Goosegrass [7, 10]: 90 | Plant response rating, Goosegrass [7, 11]: 90 | Plant response rating, Corn (corn (Zea mays); [9]): 15 | Plant response rating, Corn (corn (Zea mays); [10]): 50 | Plant response rating, Corn (corn (Zea mays); [11]): 60
